Measurements reported in US20150241429A1, “IRHOM2 INHIBITION FOR THE TREATMENT OF COMPLEMENT MEDIATED DISORDERS” (HOSPITAL FOR SPECIAL SURGERY, priority 2012, published 2015).

Legend:
human monocytes = assay: C5a-stimulated oxidative burst (ROS release) in human monocytes; assay type: cell-based; details: C5a in presence or absence of Marimastat, ROS by FACS (DHR)
Description: (§1) FIG. 5. (A) TACE-mediated cleavage of CD62L on the cell surface of freshly isolated human neutrophils (representative of 2 experiments). Surface expression of CD62L was assessed by flow cytometry following stimulation with 1 μg/mL of C5a or 25 ng/mL PMA for 20 min in the presence or absence of Marimastat (MM). (B) Quantification of total sheep red blood cells phagocytosed by wild type or Tace−/− bone marrow macrophages. Opsonized sheep red blood cells were stained with CFSE and total fluorescence intensity (TFI) was measured by flow cytometry, n=3, mean+/−SEM; * indicates p>0.05. (C) Release of reactive oxygen species by human monocytes when stimulated with C5a in the presence or absence of Marimastat. ROS was quantified by FACS by measuring the mean intensity of the ROS-reactive dye DHR. […] The Fc domains of pathogenic IgG initiate tissue damage by binding FcγR on effector cells and by activating complement, and FcγRs are critical for the pathogenesis of inflammatory arthritis in the K/B×N serum model (Ji et al., 2002a).

macrophages = assay: Phagocytosis of IgG-opsonized red blood cells by macrophages; assay type: cell-based; details: inhibition of TACE with MM
Description: as §1, with “(B) Quantification of total sheep red blood cells phagocytosed by wild type or Tace−/− bone marrow macrophages.” left out

iRhom2 = iRhom2 expression in ex vivo cultures of RA synovial macrophages; assay type: cell-based, human; details: RA synovial macrophages incubated overnight ± etanercept, n=8
Description: FIG. 2. Production of TNFα and other pro-inflammatory molecules is enhanced by TNFα shedding. (A) Quantification of mRNA levels of the indicated genes by qPCR following 30 min pre-treatment with 10 μg/ml etanercept and stimulation with C5a (representative of 3 experiments). (B) qPCR of iRhom2 mRNA in human monocytes treated for the indicated time periods with hTNFα (representative of 4 experiments). (C) Relative iRhom2 expression in RA synovial macrophages compared to macrophages from normal control patients, n=7 for control, and n=8 for RA patients (Nonparametric Mann-Whitney U test) (Gordon et al., 2012). (D) iRhom2 expression in synovial macrophages from RA patients following incubation overnight±etanercept, shown as percent of expression in freshly isolated cells, n=8. […] (F) Decreased TNFα release from C5a, IC and IC+C5a-stimulated cells treated with iR2 siRNA or TACE siRNA compared to untreated controls (representative of 3 independent experiments, mean±s.d. of samples stimulated in duplicates). *: p<0.05.
This, in turn, would also reduce the production of TNFα-dependent cytokines and of iRhom2, a crucial positive regulator of TACE (Adrain et al., 2012; McIlwain et al., 2012; Siggs et al., 2012).

Compound	C5a-stimulated oxidative burst (human monocytes)	opsonization (internalization of IgG-opsonized red blood cells) (macrophages)	iRhom2 expression (iRhom2)
CNC(=O)[C@@H](NC(=O)[C@H](CC(C)C)[C@H](O)C(=O)NO)C(C)(C)C [MM, Marimastat]	did not alter	did not alter	–
etanercept	–	–	substantially reduced
